Values joined by “and” are separate entries in the source; they are usually repeats but may differ in a detail not shown here. Equal entries are not always repeated.
Biological target: recombinant B. subtilis PBP4 (Bacillus subtilis, UniProt P40750)
Experiment: BOCILLIN FL fluorescence polarization binding competition
Settings: compound 50 μM; Ex. 3 series
Description: PBP4 BOCILLIN™ FL Binding Competition Assays. The ability of putative PBP4 inhibitors to impact the active site of recombinant PBP4 was assessed using two previously established BOCILLIN™-FL Penicillin (Penicillin V conjugated to BODIPY fluorescent dye) binding assays. First, fluorescence polarization assays were performed as previously described. Briefly, the indicated amount of the putative PBP4 inhibitor or control antibiotic was incubated with 1 μM recombinant B. subtilis PBP4 or S. aureus PBP2a in potassium phosphate buffer (40 mM K2HPO4 and 10 mM KH2PO4) for 1 hour in black 96-well microtiter plates (Corning Life Sciences®, Corning, NY). Following incubation, 1 μM (final concentration) BOCILLIN™ FL penicillin was added, and the mixture was incubated for 30 minutes. BOCILLIN™ FL fluorescence polarization was measured at (495nm excitation and 545nm emission) in a SpectraMax® M5 multimode plate reader (Molecular Devices®, San Jose, CA). All assays were repeated at least 8 times, averaged, and values falling outside of 2 standard deviations were considered outliers. Resulting data was plotted as percentage BOCILLIN™ FL binding inhibition=(T/U)×100; T=FL polarization of ((PBP4+BOCILLIN™ FL)−(PBP4+BOCILLIN™ FL+inhibitor compound)), U=FL polarization of ((PBP4+BOCILLIN™ FL)−(BOCILLIN™ FL)). Second, gel electrophoresis and fluorescence detection were used to measure BOCILLIN™ FL labeling of PBP4 treated with the known PBP4 inhibitor cefoxitin (positive control), kanamycin (negative control) or 9314848 (test compound). Briefly, 1 μM of recombinant PBP4 was mixed with 0, 50, 500, 2000, or 5000 μM 9314848 or control antibiotic in 50 mM phosphate buffer (pH 7.4) and incubated at 37° C. for 30 minutes. Next 40 μM of BOCILLIN™ FL was added to the reaction mixture and incubated for an additional 30 minutes at 37° C. Reactions were stopped by adding 5×SDS-PAGE gel loading dye, heated at 100° C. for 3 minutes and separated by electrophoresis in 12% SDS-PAGE (2 h, 120 Volts). BOCILLIN™ FL labeled PBP4 was imaged at λ=365 nm using a BioRad© Gel Doc EZ™ Imaging system and the gel was then subsequently stained with Bio-safe Coomassie Brilliant Blue stain (BioRad©, Hercules, CA, USA) to measure the amount of protein present in each reaction condition and analyzed using NIH-ImageJ software. The percent BOCILLIN™ FL binding was calculated by first normalizing the protein present in each reaction condition to that of untreated control and subsequently applying each reaction's protein normalization factor to each reaction's fluorescent signal. The percentage BOCILLIN™ FL binding inhibition was then calculated as the normalized band intensity of antibiotic/compound treated sample as compared to control sample (PBP4+BOCILLIN™ FL in the absence of compound).
To more directly evaluate whether 9314848 is likely to affect PBP4 function, the compound's ability to bind recombinant PBP4 was measured using BOCILLIN™ FL fluorescence polarization displacement assays. The premise for the assay is that the fluorescence polarization of the fluorescently labeled β-lactam, penicillin V (BOCILLIN™ FL), will increase upon binding to its cognate target (i.e., PBP4). Further, compounds that bind PBP4 and inhibit its function would impede BOCILLIN™ FL binding thereby allowing assessment of the protein binding affinity of 9314848 using a simple fluorescence reduction assay.

recombinant B. subtilis PBP4, sequence (P40750 22-624): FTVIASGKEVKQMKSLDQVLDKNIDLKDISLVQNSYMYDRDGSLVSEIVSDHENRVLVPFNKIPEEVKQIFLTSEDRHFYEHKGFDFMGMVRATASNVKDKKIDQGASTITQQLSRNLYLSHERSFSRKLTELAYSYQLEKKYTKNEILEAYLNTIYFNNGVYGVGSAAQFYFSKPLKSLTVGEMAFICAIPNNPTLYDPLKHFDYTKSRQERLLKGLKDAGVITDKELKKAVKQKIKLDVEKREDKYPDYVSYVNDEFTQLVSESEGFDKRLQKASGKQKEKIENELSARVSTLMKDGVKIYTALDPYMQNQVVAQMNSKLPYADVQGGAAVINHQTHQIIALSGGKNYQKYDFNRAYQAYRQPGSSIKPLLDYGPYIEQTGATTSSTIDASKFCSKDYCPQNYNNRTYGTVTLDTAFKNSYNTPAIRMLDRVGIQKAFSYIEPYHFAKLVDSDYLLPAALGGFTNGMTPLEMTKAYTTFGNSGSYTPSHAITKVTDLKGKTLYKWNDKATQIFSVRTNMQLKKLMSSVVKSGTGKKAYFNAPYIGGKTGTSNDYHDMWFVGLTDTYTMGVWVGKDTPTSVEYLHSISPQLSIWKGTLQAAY

## O=C(Nc1ccc2[nH]c(-c3cccs3)nc2c1)c1ccco1 [Compound 1 (7729837)]
  Percentage Bocillin Displacement (%), PBP4 binding: 25.66% and 25.66 ± 18.09%

Reference: patent US20260124213A1, “STAPHYLOCOCCUS AUREUS PBP4 INHIBITORS AND METHOD OF USE” (UNIVERSITY OF ROCHESTER, priority 2022, published 2026)
